Data reported in ChEMBL document CHEMBL4665624, “Synthesis of 5-(4-(1H-phenanthro[9,10-d]imidazol-2-yl)benzylidene)thiazolidine-2,4-dione as promising DNA and serum albumin-binding agents and evaluation of antitumor activity” (Eur J Med Chem, 2019).

What follows are compounds tested on IGROV-1 (assay: Antitumor activity against human IGROV1 cells assessed as cell growth inhibition at 10 uM incubated for 48 hrs by sulforhodamine B assay). Conditions: read-out: GI.
Format: functional

SMILES	inhibition of growth at 10 µM [%]
Oc1ccccc1-c1nc2c3ccccc3c3ccccc3c2[nH]1	23.5

Each compound was assayed on HCT-15 (assay: Antitumor activity against human HCT15 cells assessed as cell growth inhibition at 10 uM incubated for 48 hrs by sulforhodamine B assay). Conditions: read-out: GI.
Format: functional

SMILES	inhibition of growth at 10 µM [%]
Oc1ccccc1-c1nc2c3ccccc3c3ccccc3c2[nH]1	< 10

Each compound was assayed on HCC 2998 (assay: Antitumor activity against human HCC2998 cells assessed as cell growth inhibition at 10 uM incubated for 48 hrs by sulforhodamine B assay). Conditions: read-out: GI.
Format: functional

SMILES	inhibition of growth at 10 µM [%]
Oc1ccccc1-c1nc2c3ccccc3c3ccccc3c2[nH]1	< 10

The compounds below were run on NCI-H23 (assay: Antitumor activity against human NCI-H23 cells assessed as cell growth inhibition at 10 uM incubated for 48 hrs by sulforhodamine B assay). Conditions: read-out: GI.
Format: functional

SMILES	inhibition of growth at 10 µM [%]
Oc1ccccc1-c1nc2c3ccccc3c3ccccc3c2[nH]1	10.7

What follows are compounds tested on K562 (assay: Antitumor activity against human K562 cells assessed as cell growth inhibition at 10 uM incubated for 48 hrs by sulforhodamine B assay). Conditions: read-out: GI.
Format: functional

SMILES	inhibition of growth at 10 µM [%]
Oc1ccccc1-c1nc2c3ccccc3c3ccccc3c2[nH]1	12.1

These compounds were tested on RPMI-8226 (assay: Antitumor activity against human RPMI8226 cells assessed as cell growth inhibition at 10 uM incubated for 48 hrs by sulforhodamine B assay). Conditions: read-out: GI.
Format: functional

SMILES	inhibition of growth at 10 µM [%]
Oc1ccccc1-c1nc2c3ccccc3c3ccccc3c2[nH]1	13.3

Each compound was assayed on HT-29 (assay: Antitumor activity against human HT-29 cells assessed as cell growth inhibition at 10 uM incubated for 48 hrs by sulforhodamine B assay). Conditions: read-out: GI.
Format: functional

SMILES	inhibition of growth at 10 µM [%]
Oc1ccccc1-c1nc2c3ccccc3c3ccccc3c2[nH]1	< 10

What follows are compounds tested on UACC-62 (assay: Antitumor activity against human UACC-62 cells assessed as cell growth inhibition at 10 uM incubated for 48 hrs by sulforhodamine B assay). Conditions: read-out: GI.
Format: functional

SMILES	inhibition of growth at 10 µM [%]
Oc1ccccc1-c1nc2c3ccccc3c3ccccc3c2[nH]1	10.1

The compounds below were run on 786-0 (assay: Antitumor activity against human 786-0 cells assessed as cell growth inhibition at 10 uM incubated for 48 hrs by sulforhodamine B assay). Conditions: read-out: GI.
Format: functional

SMILES	inhibition of growth at 10 µM [%]
Oc1ccccc1-c1nc2c3ccccc3c3ccccc3c2[nH]1	< 10

What follows are compounds tested on Malme-3M (assay: Antitumor activity against human MALME-3M cells assessed as cell growth inhibition at 10 uM incubated for 48 hrs by sulforhodamine B assay). Conditions: read-out: GI.
Format: functional

SMILES	inhibition of growth at 10 µM [%]
Oc1ccccc1-c1nc2c3ccccc3c3ccccc3c2[nH]1	< 10

What follows are compounds tested on HCT-116 (assay: Antitumor activity against human HCT116 cells assessed as cell growth inhibition at 10 uM incubated for 48 hrs by sulforhodamine B assay). Conditions: read-out: GI.
Format: functional

SMILES	inhibition of growth at 10 µM [%]
Oc1ccccc1-c1nc2c3ccccc3c3ccccc3c2[nH]1	12.3

The compounds below were run on OVCAR-3 (assay: Antitumor activity against human OVCAR-3 cells assessed as cell growth inhibition at 10 uM incubated for 48 hrs by sulforhodamine B assay). Conditions: read-out: GI.
Format: functional

SMILES	inhibition of growth at 10 µM [%]
Oc1ccccc1-c1nc2c3ccccc3c3ccccc3c2[nH]1	< 10

The compounds below were run on MCF7 (assay: Antitumor activity against human MCF7 cells assessed as cell growth inhibition at 10 uM incubated for 48 hrs by sulforhodamine B assay). Conditions: read-out: GI.
Format: functional

SMILES	inhibition of growth at 10 µM [%]
Oc1ccccc1-c1nc2c3ccccc3c3ccccc3c2[nH]1	26.3

These compounds were tested on NCI/ADR-RES (assay: Antitumor activity against human NCI/ADR-RES cells assessed as cell growth inhibition at 10 uM incubated for 48 hrs by sulforhodamine B assay). Conditions: read-out: GI.
Format: functional

SMILES	inhibition of growth at 10 µM [%]
Oc1ccccc1-c1nc2c3ccccc3c3ccccc3c2[nH]1	< 10

These compounds were tested on HOP-92 (assay: Antitumor activity against human HOP92 cells assessed as cell growth inhibition at 10 uM incubated for 48 hrs by sulforhodamine B assay). Conditions: read-out: GI.
Format: functional

SMILES	inhibition of growth at 10 µM [%]
Oc1ccccc1-c1nc2c3ccccc3c3ccccc3c2[nH]1	16.4

Each compound was assayed on SF-295 (assay: Antitumor activity against human SF295 cells assessed as cell growth inhibition at 10 uM incubated for 48 hrs by sulforhodamine B assay). Conditions: read-out: GI.
Format: functional

SMILES	inhibition of growth at 10 µM [%]
Oc1ccccc1-c1nc2c3ccccc3c3ccccc3c2[nH]1	< 10

The compounds below were run on SF-268 (assay: Antitumor activity against human SF268 cells assessed as cell growth inhibition at 10 uM incubated for 48 hrs by sulforhodamine B assay). Conditions: read-out: GI.
Format: functional

SMILES	inhibition of growth at 10 µM [%]
Oc1ccccc1-c1nc2c3ccccc3c3ccccc3c2[nH]1	< 10

The compounds below were run on OVCAR-4 (assay: Antitumor activity against human OVCAR-4 cells assessed as cell growth inhibition at 10 uM incubated for 48 hrs by sulforhodamine B assay). Conditions: read-out: GI.
Format: functional

SMILES	inhibition of growth at 10 µM [%]
Oc1ccccc1-c1nc2c3ccccc3c3ccccc3c2[nH]1	< 10

Each compound was assayed on SNB-75 (assay: Antitumor activity against human SNB-75 cells assessed as cell growth inhibition at 10 uM incubated for 48 hrs by sulforhodamine B assay). Conditions: read-out: GI.
Format: functional

SMILES	inhibition of growth at 10 µM [%]
Oc1ccccc1-c1nc2c3ccccc3c3ccccc3c2[nH]1	11.1

The compounds below were run on MDA-MB-468 (assay: Antitumor activity against human MDA-MB-468 cells assessed as cell growth inhibition at 10 uM incubated for 48 hrs by sulforhodamine B assay). Conditions: read-out: GI.
Format: functional

SMILES	inhibition of growth at 10 µM [%]
Oc1ccccc1-c1nc2c3ccccc3c3ccccc3c2[nH]1	< 10

These compounds were tested on EKVX (assay: Antitumor activity against human EKVX cells assessed as cell growth inhibition at 10 uM incubated for 48 hrs by sulforhodamine B assay). Conditions: read-out: GI.
Format: functional

SMILES	inhibition of growth at 10 µM [%]
Oc1ccccc1-c1nc2c3ccccc3c3ccccc3c2[nH]1	19.4

What follows are compounds tested on SNB-19 (assay: Antitumor activity against human SNB-19 cells assessed as cell growth inhibition at 10 uM incubated for 48 hrs by sulforhodamine B assay). Conditions: read-out: GI.
Format: functional

SMILES	inhibition of growth at 10 µM [%]
Oc1ccccc1-c1nc2c3ccccc3c3ccccc3c2[nH]1	< 10

These compounds were tested on NCI-H226 (assay: Antitumor activity against human NCI-H226 assessed as cell growth inhibition at 10 uM incubated for 48 hrs by sulforhodamine B assay). Conditions: read-out: GI.
Format: functional

SMILES	inhibition of growth at 10 µM [%]
Oc1ccccc1-c1nc2c3ccccc3c3ccccc3c2[nH]1	11.6

These compounds were tested on COLO 205 (assay: Antitumor activity against human COLO205 cells assessed as cell growth inhibition at 10 uM incubated for 48 hrs by sulforhodamine B assay). Conditions: read-out: GI.
Format: functional

SMILES	inhibition of growth at 10 µM [%]
Oc1ccccc1-c1nc2c3ccccc3c3ccccc3c2[nH]1	< 10
